Active and inactive are the calls of the source.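 How the source made its calls: active means half-maximal effective concentration at most 10 microM and response span at least 30% from a well-fitted curve; inactive means the rest.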
Target: Rab7 GTPase wild-type (Canis lupus familiaris), GST fusion
Assay: Rab7 wildtype GTP binding inhibitors, SAR follow-up, biochemical, dog Rab7, bead multiplex flow cytometry, round 1 (AID 588394)
Conditions: Bead-based flow cytometry, Bodipy-FL-GTP binding, EDTA; for percent response, lower = inhibition: at 100 µM (top of the series)

| Compound | EC50 | percent response, lower = inhibition |
| --- | --- | --- |
| CC1(C)Cc2c(sc(NC(=S)NC(=O)c3cccc(Br)c3)c2C(=O)O)CO1 | 2.28 µM |  |
| CC1(C)Cc2c(sc(NC(=S)NC(=O)c3ccccc3F)c2C(=O)O)CO1 | 0.056 µM |  |
| CC1(C)CCc2sc(NC(=S)NC(=O)c3ccccc3)c(C(=O)O)c2C1 | 0.072 µM |  |
| CCOC(=O)c1c(NC(=O)Nc2ccc(C)cc2)sc2c1CCN(C)C2 |  | inactive |
| Cc1ccc(Nc2nc3sc4c(c3c(=O)o2)CCN(C)C4)cc1 |  | inactive |
| CC1(C)Cc2c(sc(NC(=S)NC(=O)c3ccc(Br)cc3)c2C(=O)O)CO1 | 0.269 µM |  |
| CCOC(=O)c1c(NC(=S)Nc2ccccc2)sc2c1CC(C)(C)OC2 |  | inactive |
| CN1CCc2c(sc3nc(Nc4ccc(F)cc4)oc(=O)c23)C1 |  | inactive |
| CC(C)(C)OC(=O)c1c(NC(=S)NC(=O)c2ccccc2)sc2c1CCOC2 |  | inactive |
| CC1(C)Cc2c(sc(NC(=S)NC(=O)c3ccccc3Br)c2C(=O)O)CO1 | 0.046 µM |  |
| Cc1ccc(NC(=O)Nc2sc3c(c2C(=O)O)CCN(C)C3)cc1 |  | inactive |
| CN1CCc2c(sc(NC(=O)Nc3ccc(F)cc3)c2C(=O)O)C1 |  | inactive |
| CCOC(=O)c1c(N)sc2ccccc12 |  | inactive |
| COC(=O)c1c(N)sc2c1CC(C)(C)OC2 |  | inactive |
| CC1(C)Cc2c(sc(NC(=S)Nc3ccccc3)c2C(=O)O)CO1 |  | inactive |
| CCOC(=O)c1c(NC(=S)NC(=O)c2ccccc2)sc2ccccc12 |  | inactive |
| CCOC(=O)c1c(NC(=O)NC(C)(C)C)sc2c1CCN(C)C2 |  | inactive |
| CCOC(=O)c1c(NC(=O)Nc2ccc(F)cc2)sc2c1CCN(C)C2 |  | inactive |
| COc1ccc(C(=O)NC(=S)Nc2sc3c(c2C(=O)O)CC(C)(C)OC3)cc1 | 0.126 µM |  |
| COc1cccc(C(=O)NC(=S)Nc2sc3c(c2C(=O)O)CC(C)(C)OC3)c1 | 0.055 µM |  |
| CC1(C)Cc2c(sc(NC(=S)NC(=O)c3cccc(F)c3)c2C(=O)O)CO1 | 0.308 µM |  |
| CC1(C)Cc2c(sc(NC(=O)Cc3ccccc3)c2C(=O)O)CO1 |  | inactive |

— PubChem BioAssay AID588394 (NMMLSC, 2011)
